The record followed here is US20100130579A1, “CANCER THERAPY” (Georgetown University, priority 2006, published 2010).

“Also recorded” adds a separate entry of the source.

Holding throughout (assay type): cell-based
In one assay the test system is cyclin D1. As to the kind of experiment: Cyclin D1 expression after KED compound. As to conditions: as a result of RASSF1A induction. On the procedure: (§1) Anticancer effects and activation of a tumor suppressor gene, RASSF1A) KED-3-63-1, KED 3-63-2 and KED 3-81 were assessed.
In the next assay the test system is RASSF1A. Put plainly: Activation of tumor suppressor gene RASSF1A by KED compounds. On the procedure:
as §1

The next assay concerns DNA synthesis. As to the kind of experiment: Inhibition of DNA synthesis / anticancer effects of KED compounds. The note with it: in the assay used (inhibition of DNA synthesis, FIGS. 7A-7D). On the procedure:
FIGS. 7A-7D. FIGS. 7A-7D show the dose-dependent inhibition of DNA synthesis with KED compounds.
as §1

Turning to `COc1ccc2c(c1)[nH]c1c(C)c3c(cc12)C=CC(C)(CCC=C(C)C)O3` (centres unmarked) [KED-3-63-1], in the assay on cyclin D1, the “cyclin D1 expression” value was “down-regulated”. The “induction of RASSF1A” value in the assay with RASSF1A was “induced RASSF1A”. Moreover, in the assay with DNA synthesis, the anticancer effects entry is recorded as “have anti-cancer effects; also recorded: have anticancer effects”.

On to `COc1ccc2c(c1)[nH]c1c(C)c(OCc3ccccc3)ccc12` [KED-3-63-2], for which the anticancer effects entry in the assay with DNA synthesis is recorded as “does not; also recorded: no anti-cancer effects”. With `COc1ccc2c(c1)[nH]c1cc(OCc3ccccc3)c(C)cc12` [KED-3-81], the anticancer effects entry in the assay with DNA synthesis is on record as “have anti-cancer effects; also recorded: have anticancer effects”.
